For orientation: IC50 means the midpoint of a concentration-inhibition curve. A high value points to a need for much substance. As usually defined, the EC50 is the concentration needed to bring the measured effect to its halfway point. Low readings indicate an effect from little substance, high ones a need for much substance. As a reminder, the CC50 is the concentration that lowers cell viability or growth by half. A higher CC50 goes with better tolerance by the cells.

Our source for the IC50, EC50 and CC50 values is ChEMBL document CHEMBL1128792, “Aromatic amino acid phosphoramidate di- and triesters of 3-azido-3-deoxythymidine (AZT) are non-toxic inhibitors of HIV-1 replication” (Bioorg Med Chem Lett, 1995).

The target in assay [1] is Human immunodeficiency virus type 1 reverse transcriptase (Human immunodeficiency virus 1, UniProt Q72547). Kind of assay: Tested for the inhibition towards HIV-reverse transcriptase.
Assay [2] in a line: Effective molar concentration required to inhibit the replication of HIV-1 in human peripheral blood mononuclear cells by 50% (PBMC) was determined. The format is functional.
The subject of assay [3] is CCRF-CEM. Kind of assay: Cytotoxic concentration towards CEM cells. The format is functional. As to conditions: Homo sapiens.
Assay [4] can be described thus: Cytotoxic concentration towards peripheral blood mononuclear cells. The class given is functional. The conditions noted are these: Homo sapiens.

Compound `COC(=O)[C@H](Cc1ccccc1)NP(=O)(O)OCC1OC(n2cc(C)c(=O)[nH]c2=O)CC1N=[N+]=[N-]` (stereo partly specified) yielded an IC50 in assay [1] above 100 µM. Moreover, in assay [2], a half-maximal effect (EC50) was put at 0.6 µM. For the same compound, the half-maximal cytotoxic concentration (CC50) in assay [3] and in assay [4] was above 100 µM throughout.
`COC(=O)[C@H](Cc1c[nH]c2ccccc12)NP(=O)(OC)OCC1OC(n2cc(C)c(=O)[nH]c2=O)CC1N=[N+]=[N-]` (stereo partly specified) yielded an EC50 in assay [2] of 0.3 µM. Besides, the CC50 in assay [3] and in assay [4] was above 50 µM each time.
`COC(=O)[C@H](Cc1c[nH]c2ccccc12)NP(=O)(O)OC[C@H]1O[C@@H](n2cc(C)c(=O)[nH]c2=O)C[C@@H]1N=[N+]=[N-]` showed an IC50 in assay [1] above 100 µM. The compound further registered a concentration giving a half-maximal response (EC50) in assay [2] of 0.01 µM. Further, the CC50 in assay [3] and in assay [4] was above 100 µM in each case.
In assay [2], `COC(=O)[C@H](Cc1ccccc1)NP(=O)(OC)OCC1OC(n2cc(C)c(=O)[nH]c2=O)CC1N=[N+]=[N-]` (stereo partly specified) displayed a half-maximal effective concentration (EC50) of 0.09 µM. Also, the CC50 in assay [3] is above 50 µM; in assay [4], above 100 µM.
`COC(=O)[C@H](Cc1ccccc1)NP(=O)(OCCC#N)OCC1OC(n2cc(C)c(=O)[nH]c2=O)CC1N=[N+]=[N-]` (stereo partly specified) yielded an IC50 in assay [1] above 100 µM. In assay [2], this compound yielded a concentration for a half-maximal effect (EC50) above 1 µM. Besides, the CC50 in assay [3] and in assay [4] was above 100 µM each time.
Take `COC(=O)[C@H](Cc1c[nH]c2ccccc12)NP(=O)(OCCC#N)OCC1OC(n2cc(C)c(=O)[nH]c2=O)CC1N=[N+]=[N-]` (stereo partly specified): the IC50 in assay [1] was above 100 µM. This compound also gave an EC50 in assay [2] of 0.4 µM. The half-maximal cytotoxic concentration (CC50) in assay [3] and in assay [4] was above 100 µM in each case.
The compound `Cc1cn([C@H]2C[C@H](N=[N+]=[N-])[C@@H](CO)O2)c(=O)[nH]c1=O` [ZIDOVUDINE] had an IC50 in assay [1] of 0.01 µM. In assay [2], this compound showed a 50% effective concentration (EC50) of 0.08 µM. Further, the figures for the cytotoxic concentration (CC50) in assay [3] and in assay [4] were 14.3 µM and above 100 µM, respectively.
